Experimental data from the CheMixHub ionic liquid set.

Assay: xn = mol fraction of the nth substance listed

CC(=O)Oc1ccccc1C(=O)O + CC#N + CCCCCC[n+]1ccn(C)c1.[Br-]
viscosity [mPa·s], 101 kPa
Conditions	288.15 K	298.15 K	308.15 K	318.15 K
x1 = 0.001647, x3 = 0	0.394	0.349	0.316	0.292
x1 = 0.001682, x3 = 0.004167	0.408	0.37	0.336	0.309
x1 = 0.001814, x3 = 0.0117	0.434	0.393	0.372	0.343
x1 = 0.001864, x3 = 0.008116	0.431	0.388	0.353	0.324
x1 = 0.00335, x3 = 0.00416	0.412	0.373	0.34	0.313
x1 = 0.003412, x3 = 0	0.398	0.353	0.319	0.295
x1 = 0.003448, x3 = 0.01168	0.437	0.396	0.376	0.346
x1 = 0.003521, x3 = 0.008102	0.435	0.391	0.356	0.327
x1 = 0.004495, x3 = 0	0.402	0.355	0.322	0.297
x1 = 0.004647, x3 = 0.004154	0.416	0.376	0.343	0.315
x1 = 0.004832, x3 = 0.01167	0.441	0.399	0.38	0.349
x1 = 0.004834, x3 = 0.008092	0.438	0.395	0.359	0.33
x1 = 0.00569, x3 = 0	0.405	0.358	0.325	0.3
x1 = 0.005813, x3 = 0.004149	0.42	0.38	0.346	0.317
x1 = 0.005963, x3 = 0.008083	0.441	0.398	0.363	0.333
x1 = 0.006109, x3 = 0.01165	0.444	0.402	0.383	0.352
x1 = 0.006963, x3 = 0	0.408	0.362	0.328	0.303
x1 = 0.007083, x3 = 0.004144	0.423	0.383	0.349	0.32
x1 = 0.007249, x3 = 0.008072	0.444	0.401	0.366	0.335
x1 = 0.007314, x3 = 0.01164	0.448	0.406	0.386	0.355
x1 = 0.00845, x3 = 0	0.412	0.365	0.331	0.306
x1 = 0.008753, x3 = 0.004137	0.428	0.387	0.354	0.324
x1 = 0.008914, x3 = 0.008059	0.448	0.405	0.369	0.339
x1 = 0.00934, x2 = 0.979	0.452	0.41	0.39	0.359
x1 = 0.009969, x3 = 0	0.416	0.369	0.334	0.309
x1 = 0.009979, x3 = 0.004132	0.432	0.39	0.356	0.327
x1 = 0.01021, x2 = 0.9782	0.455	0.412	0.392	0.361
x1 = 0.01031, x3 = 0.008047	0.451	0.408	0.372	0.342
x1 = 0.01098, x3 = 0	0.419	0.371	0.337	0.311
x1 = 0.01114, x3 = 0.004127	0.436	0.393	0.359	0.33
x1 = 0.01158, x3 = 0.008037	0.454	0.411	0.375	0.345
x1 = 0.01173, x2 = 0.9767	0.458	0.416	0.396	0.364
x1 = 0.01219, x3 = 0	0.422	0.375	0.34	0.314
x1 = 0.0126, x3 = 0.004121	0.44	0.396	0.362	0.333
x1 = 0.01261, x2 = 0.9794	0.458	0.414	0.378	0.348
x1 = 0.01337, x2 = 0.9751	0.462	0.42	0.4	0.368

CC[n+]1ccn(C)c1.F[B-](F)(F)F + CC(=O)N(C)C
Conditions	electrical conductivity [S/m]	viscosity [mPa·s]
283.15 K, 100 kPa, x1 = 0.0006798	0.03925	–
288.15 K, 100 kPa, x1 = 0.001378	0.07985	–
298.15 K, 100 kPa, x1 = 0.0004953	0.03615	–
303.15 K, 101 kPa, x2 = 0	–	28
303.15 K, 101 kPa, x2 = 0.1998	–	18.05
303.15 K, 101 kPa, x2 = 0.6	–	5.678
303.15 K, 101 kPa, x2 = 0.6996	–	3.833
303.15 K, 101 kPa, x2 = 0.8001	–	2.499
313.15 K, 100 kPa, x1 = 0.0006798	0.05765	–
313.15 K, 101 kPa, x2 = 0.5005	–	6.172
313.15 K, 101 kPa, x2 = 0.6	–	4.493
323.15 K, 101 kPa, x2 = 0	–	15.35
323.15 K, 101 kPa, x2 = 0.2995	–	8.36
333.15 K, 101 kPa, x2 = 0.2995	–	6.91
333.15 K, 101 kPa, x2 = 0.3989	–	5.375

CCS(=O)(=O)[O-].[NH4+] + CC(=O)[O-].CC[n+]1ccn(C)c1
101 kPa
Conditions	electrical conductivity [S/m]	viscosity [mPa·s]
313.15 K, x1 = 0.1701	0.38	112.1
318.15 K, x1 = 0.05	0.649	51.8
323.15 K, x1 = 0.0999	0.669	50.7
323.15 K, x1 = 0.1701	0.588	65.1

OC[C@@H](O)[C@@H](O)[C@H](O)[C@@H](O)CO + CC(=O)[O-].CC[n+]1ccn(C)c1
303.15 K, 100 kPa
Conditions	viscosity [mPa·s]
x1 = 0.1894	283
x1 = 0.5836	2256

CC[n+]1ccn(C)c1.F[B-](F)(F)F + CC(=O)c1ccccc1
Conditions	viscosity [mPa·s]
293.15 K, 100 kPa, x2 = 0	42.7

C[N+](C)(C)Cc1ccccc1.[Cl-] + CCC(O)CO
101.13 kPa, x1 = 0.5
Conditions	electrical conductivity [S/m]	viscosity [mPa·s]
308 K	–	64
323 K	0.53	–

CCCCCCCCCC(=O)[O-].CCCCCCCCCCCCCC[P+](CCCCCC)(CCCCCC)CCCCCC + CCCC(=O)O + O
298 K, 100 kPa
Conditions	viscosity [mPa·s]
x2 = 0, x3 = 0.8754	96
x2 = 0.02766, x3 = 0.8266	95
x2 = 0.04982, x3 = 0.8036	97
x2 = 0.3259, x3 = 0.4715	100
x2 = 0.4065, x3 = 0.3936	96
x2 = 0.4564, x3 = 0.3488	91
x2 = 0.4978, x3 = 0.3385	78

CCCCCCCC[N+](CCCCCCCC)(CCCCCCCC)CCCCCCCC.[Br-] + CCCCCC(=O)O
Conditions	electrical conductivity [S/m]
298.1 K, 100 kPa, x1 = 0.333	4.5e-06

CCCCCCCC[N+](CCCCCCCC)(CCCCCCCC)CCCCCCCC.[Br-] + CCCCCCC(=O)O
Conditions	electrical conductivity [S/m]
298.1 K, 100 kPa, x1 = 0.333	4.5e-06

CCCCCCCC[N+](CCCCCCCC)(CCCCCCCC)CCCCCCCC.[Br-] + CCCCCCCC(=O)O
Conditions	electrical conductivity [S/m]
298.1 K, 100 kPa, x1 = 0.333	4.5e-06

CCCCCCCC[N+](CCCCCCCC)(CCCCCCCC)CCCCCCCC.[Br-] + CCCCCCCCCC(=O)O
Conditions	electrical conductivity [S/m]	viscosity [mPa·s]
293 K, 100 kPa, x1 = 0.3333	–	910
298 K, 100 kPa, x1 = 0.3333	–	650
298.1 K, 100 kPa, x1 = 0.333	4.5e-06	–
303 K, 100 kPa, x1 = 0.3333	–	470
303.15 K, 101 kPa, x2 = 0.6667	–	469
313 K, 100 kPa, x1 = 0.3333	–	260
318.15 K, 100 kPa, x1 = 0.333	–	208
323.15 K, 101 kPa, x2 = 0.6667	–	174
333 K, 100 kPa, x1 = 0.3333	–	98
353.15 K, 101 kPa, x2 = 0.6667	–	56
